Measurements from patent US8802721B2, “Thiophene compounds for inflammation and immune-related uses” (Synta Pharmaceuticals Corp., priority 2005, dated 2014).

biological target: ICRAC current in RBL cells (CRAC ion channel) (Rattus norvegicus, UniProt Q5M848); assay: Patch clamp inhibition of ICRAC current in RBL cells; type: cell-based; details: whole-cell patch clamp, inward current at −80 mV, read-out: IC50 (concentration which inhibits 50% of the ICRAC current)
Protocol: In general, a whole cell patch clamp method is used to examine the effects of a compound of the invention on a channel that mediates Icrac. In such experiments, a baseline measurement is established for a patched cell. Then a compound to be tested is perfused (or puffed) to cells in the external solution and the effect of the compound on Icrac is measured. A compound that modulates Icrac (e.g., inhibits) is a compound that is useful in the invention for modulating CRAC ion channel activity.
Rat basophilic leukemia cells (RBL-2H3) were grown in DMEM media supplemented with 10% fetal bovine serum in an atmosphere of 95% air/5% CO2. Cells were seeded on glass coverslips 1-3 days before use.
Membrane currents of individual cells were recorded using the whole-cell configuration of the patch clamp technique with an EPC10 (HEKA Electronik, Lambrecht, Germany). Electrodes (2-5 MΩ in resistance) were fashioned from borosilicate glass capillary tubes (Sutter Instruments, Novato, Ca). […]
ICRAC currents were monitored every 2 seconds using a 50 msec protocol, where the voltage was ramped from −100 mV to +100 mV. […]
The ICRAC current level was determined by measuring the inward current amplitude at −80 mV of the voltage ramp in an off-line analysis using MATLAB. The ICRAC current inhibition for each concentration was calculated using peak amplitude in the beginning of the experiment from the same cell. […]

Sequence of ICRAC current in RBL cells (CRAC ion channel) (Q5M848 whole entry, looked up, the tested form may be a part): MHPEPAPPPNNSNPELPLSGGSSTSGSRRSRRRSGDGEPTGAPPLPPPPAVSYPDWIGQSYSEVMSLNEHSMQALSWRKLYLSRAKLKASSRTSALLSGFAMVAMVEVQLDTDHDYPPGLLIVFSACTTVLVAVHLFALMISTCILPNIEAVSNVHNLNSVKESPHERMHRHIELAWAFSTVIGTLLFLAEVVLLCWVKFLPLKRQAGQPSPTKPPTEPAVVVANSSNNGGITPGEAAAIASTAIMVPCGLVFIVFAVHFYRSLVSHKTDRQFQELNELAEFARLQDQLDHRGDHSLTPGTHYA

Structure (SMILES)	IC50
COc1ccc(CCCOC(Cn2ccnc2)c2ccc(OC)cc2)cc1 (stereo not shown) [SKF96365]	4000 nM

tested on: IL-2 production; assay: Inhibition of IL-2 production in PHA-activated Jurkat cells (ELISA); type: cell-based; details: Homo sapiens, PHA 2.5 μg/mL, 20 hours
Protocol: Jurkat cells were placed in a 96 well plate (0.5 million cells per well in 1% FBS medium) then a test compound of this invention was added at different concentrations. After 10 minutes, the cells were activated with PHA (final concentration 2.5 μg/mL) and incubated for 20 hours at 37° C. under CO2. The final volume was 200 μL. Following incubation, the cells were centrifuged and the supernatants collected and stored at −70° C. prior to assaying for IL-2 production. A commercial ELISA kit (IL-2 Eli-pair, Diaclone Research, Besancon, France) was used to detect production of IL-2, from which dose response curves were obtained.

Structure (SMILES)	IC50
O=C(Nc1c(F)cccc1F)c1ccc(-c2cc(C(F)(F)F)ccc2Cl)s1 [Compound 1, 5-(2-Chloro-5-trifluoromethyl-phenyl)-thiophene-2-carboxylic acid (2,6-difluoro-phenyl)-amide]	3 nM
Cc1cnccc1NC(=O)c1ccc(-c2cc(C(F)(F)F)ccc2Cl)s1 [Compound 2, 5-(2-Chloro-5-trifluoromethyl-phenyl)-thiophene-2-carboxylic acid (3-methyl-pyridin-4-yl)-amide]	14 nM
COC(=O)c1ccc(C)c(-c2ccc(C(=O)Nc3c(F)cccc3F)s2)c1 [Compound 3, 3-[5-(2,6-Difluoro-phenylcarbamoyl)-thiophen-2-yl]-4-methyl-benzoic acid methyl ester]	6.4 nM
COC(=O)c1ccc(C)c(-c2ccc(C(=O)Nc3ccncc3C)s2)c1 [Compound 4, 4-Methyl-3-[5-(3-methyl-pyridin-4-ylcarbamoyl)-thiophen-2-yl]-benzoic acid methyl ester]	58.5 nM
O=C(Nc1ccc(-c2cccc(C(F)(F)F)c2)s1)c1c(F)cccc1F [Compound 117, 2,6-Difluoro-N-[5-(3-trifluoromethyl-phenyl)-thiophen-2-yl]-benzamide]	16.5 nM
COC(=O)c1ccc(C)c(-c2ccc(NC(=O)c3c(F)cccc3F)s2)c1 [Compound 118, 3-[5-(2,6-Difluoro-benzoylamino)-thiophen-2-yl]-4-methyl-benzoic acid methyl ester]	104 nM
Cc1ccc(-c2ncco2)cc1-c1ccc(NC(=O)c2c(F)cccc2F)s1 [Compound 119, 2,6-Difluoro-N-[5-(2-methyl-5-oxazol-2-yl-phenyl)-thiophen-2-yl]-benzamide]	94.8 nM
COC(=O)c1cccc(-c2sc(NC(=O)c3c(F)cccc3F)cc2C)c1 [Compound 120, 3-[5-(2,6-Difluoro-benzoylamino)-3-methyl-thiophen-2-yl]-benzoic acid methyl ester]	87 nM
O=C(Nc1ccc(-c2cccc(-c3cnco3)c2)s1)c1c(F)cccc1F [Compound 121, 2,6-Difluoro-N-[5-(3-oxazol-5-yl-phenyl)-thiophen-2-yl]-benzamide]	164 nM
